Experimental data reported in patent US7241732B2, “Compositions and methods involved in bone growth” (University of Rochester, priority 2001, dated 2007).
Each block holds one molecule with its values, some of them ahead of it.

Legend:
isolated osteoblasts = assay: Osteoblast phenotypic markers (alkaline phosphatase, Runx2, OPG, collagen); assay type: cell-based, rat; settings: TRAP 10 μg/ml, TGFβ 2 ng/ml; percent of control, FIG. 14
Procedure: The qualitative pattern of stimulation by TRAP and TGFβ for markers of osteoblast differentiation is similar. […] Alkaline phosphatase (Alk. Phos.) was measured in a direct biochemical assay. Runx2 and osteoprotegerin (OPG) were quantified in an ELISA assay using commercially available antibodies. Collagen was measured by determining the amount of collagenase-digestible protein present in pre-labeled osteoblasts (34). All data are expressed as a percent of the control, untreated cells. All data points are the mean±one SEM. * p 0.05. ** p 0.01.
Isolated osteoblasts were prepared from neo-natal rat calvaria as previously described (Martinez D A, et al., J. Cellular Biochemistry 59: 246-257 (1995)). Alkaline phosphatase assays and standard Western analyses were performed as previously described (Ionescu A M. ET AL., Journal of Biological Chemistry. 276:11639-47 (2001)).
(§1) After incubation, the plates were washed with PBS-Tween.
Osteoblast differentiation at sites of bone remodeling is mediated by a number of regulatory factors. One of the key factors is TGFβ. In most systems, including the typically the disclosed system, TGFβ is known to be a potent enhancer of the osteoblast phenotype.

D14 primary osteoblasts = assay: OPG sandwich ELISA; assay type: cell-based; settings: following treatment
Procedure: OPG is the deccoy receptor for the RNAKL and stop the osteoclastogenesis. RANKL and OPG has been proposed for the regulation of osteoclast differentiation function. Both OPG and RANKL can themselves also be regulated by TGF-β (MacDonald R G, Science 239:1134-7, (1988)). […] This lower the secretion amount of OPG the less the protection afforded from the osteoclast.
as §1

SW408 cells = assay: P3TP-Lux reporter in Smad4 deficient cells; assay type: cell-based
From the text: SW408 cells are deficient in Smad4, a requisite co-factor for Smad2 and 3 signaling. […] However, when the cells are transfected with both Smad4 and TRIP-1, restoration of Smad signaling can occur. All values are the mean±SEM. * p 0.05 and ** p 0.01 as compared to control.

[1] = test system: P3TP-Lux reporter in MG-63 cells; assay: P3TP-Lux Smad 2,3 reporter in osteoblast cell lines; assay type: cell-based, human
From the text: P3TPLux is a Smad 2, 3 sensitive reporter. […] Co-transfection of the cells with a dominant negative TGFβ type II receptor blocks all TRAP and TGFβ signaling. Each bar is the mean of at least four determinations±SEM. * p 0.05 and ** p 0.01 as compared to control. The data for MG-63 cells are shown. The data for the SaOS2 cells are the same (data not shown).
The data with the MG-63 cell is what is shown.

[2] = test system: TGFβ reporter construct (P3TPlux); assay: P3TP lux TGFβ reporter in transfected osteoblasts; assay type: cell-based; settings: FIG. 9
Procedure: Note the difference in scales. N=4-6.
Functionality of TRIP for TGFβ signaling was determined by measuring the activation of a TGFβ promoter/reporter construct, P3TP Lux (see Experimental Design for a complete description of this construct).
Osteoblasts, cultured at 30-40% confluence in 6-well plates, are transfected on day 2 after plating using the transfection reagent Superfect (Qiagen Santa Clarita, Calif.) according to the manufacturer's guidelines. Individual experiments are internally controlled for amount of total plasmid DNA, with equal amounts of p3TP-Lux reporter, control SV40-renilla plasmid for normalization of transfection efficiency, and target construct and/or vector control DNA for all co-transfection experiments. Following transfection, the cells are placed in media containing DMEM, Penicillin/Streptomycin, and 10% NuSerum IV. After 12 hours, they are incubated for 6 hours in serum-free media (containing DMEM, hyaluronidase 4 U/ml, Penicillin/Streptomycin, and supplemented with 10 pM triiodothyronine (Sigma, St. Louis, Mo.), 60 ng/ml insulin, and 1 mM cysteine (Sigma, St. Louis, Mo.)) plus the factor or cytokine of interest. Eighteen hours later, the cells are harvested and assayed for luciferase activity using the Promega dual luciferase assay system. Renilla luciferase values were used to normalize each sample for transfection efficiency.

ROS 17/2.8 cells = assay: Apoptosis of ROS 17/2.8 cells on exposure to TRAP (morphology, alkaline phosphatase stain); assay type: cell-based; settings: 0.1% DMSO, then TRAP 5 ug/mL
From the text: DMSO, at this low concentration, itself won't cause any toxic effect on cells but can scavenge most of reactive oxygen species. […] Therefore, the TRAP-induced cell apoptosis is not due to a reactive oxygen species effect.

[3] = test system: rat calvarial osteoblasts after 14 days of culture; assay: Cleaved caspase 3 and cleaved PARP levels; assay type: cell-based; settings: day 14 cells, FIGS. 24 and 25
From the text: Biochemical confirmation of the effect of TRAP on osteoblast apoptosis was obtained by assaying levels of caspase-3 and poly ADP-ribose polymerase (PARP) in these cells lines. […] Thus, another indicator of a cells progression through apoptosis is a measurement of its cleaved caspase 3 levels. Similarly, poly ADP-ribose polymerase is a substrate for active caspase 3 and increased levels of cleave PARP are indicative of an active caspase.

[4] = target: T1, TGFβRII, HIS-TRIP and Smad 2 (Homo sapiens, UniProt Q13347); assay: GST-TRAP pull-down of receptor complex from transfected 293T cells; assay type: binding; settings: exogenous GST-TRAP 12 hours
T1 construct: expressed in transfected cells; host or cells: 293T cells transfected with TGFβRII and His-TRIP-1; Smad 2 endogenous
T1 sequence (Q13347 whole entry): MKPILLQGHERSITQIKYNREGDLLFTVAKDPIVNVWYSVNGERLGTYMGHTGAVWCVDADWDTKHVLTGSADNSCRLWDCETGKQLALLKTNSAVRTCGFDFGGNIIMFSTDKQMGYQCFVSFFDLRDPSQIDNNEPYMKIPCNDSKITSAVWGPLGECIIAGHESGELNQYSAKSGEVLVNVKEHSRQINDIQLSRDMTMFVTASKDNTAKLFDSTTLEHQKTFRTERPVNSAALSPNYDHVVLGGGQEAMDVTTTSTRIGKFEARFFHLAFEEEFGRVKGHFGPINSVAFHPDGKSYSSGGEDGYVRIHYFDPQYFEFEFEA
T1 sequence (P37173 23-567 partner): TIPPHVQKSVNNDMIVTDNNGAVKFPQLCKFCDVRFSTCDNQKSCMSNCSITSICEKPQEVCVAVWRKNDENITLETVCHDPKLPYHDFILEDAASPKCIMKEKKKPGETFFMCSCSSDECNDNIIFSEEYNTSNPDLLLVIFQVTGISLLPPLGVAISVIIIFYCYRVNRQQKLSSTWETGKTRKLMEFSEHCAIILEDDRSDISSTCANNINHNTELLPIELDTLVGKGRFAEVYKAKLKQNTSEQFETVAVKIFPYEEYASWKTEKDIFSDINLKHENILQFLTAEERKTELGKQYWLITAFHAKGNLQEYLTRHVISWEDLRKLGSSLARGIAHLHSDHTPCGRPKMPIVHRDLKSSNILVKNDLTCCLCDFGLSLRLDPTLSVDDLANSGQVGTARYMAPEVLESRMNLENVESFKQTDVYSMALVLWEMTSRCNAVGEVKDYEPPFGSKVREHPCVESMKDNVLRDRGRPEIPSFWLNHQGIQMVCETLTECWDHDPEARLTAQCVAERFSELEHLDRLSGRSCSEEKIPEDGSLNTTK
T1 sequence (Q15796 2-467 partner limits assumed): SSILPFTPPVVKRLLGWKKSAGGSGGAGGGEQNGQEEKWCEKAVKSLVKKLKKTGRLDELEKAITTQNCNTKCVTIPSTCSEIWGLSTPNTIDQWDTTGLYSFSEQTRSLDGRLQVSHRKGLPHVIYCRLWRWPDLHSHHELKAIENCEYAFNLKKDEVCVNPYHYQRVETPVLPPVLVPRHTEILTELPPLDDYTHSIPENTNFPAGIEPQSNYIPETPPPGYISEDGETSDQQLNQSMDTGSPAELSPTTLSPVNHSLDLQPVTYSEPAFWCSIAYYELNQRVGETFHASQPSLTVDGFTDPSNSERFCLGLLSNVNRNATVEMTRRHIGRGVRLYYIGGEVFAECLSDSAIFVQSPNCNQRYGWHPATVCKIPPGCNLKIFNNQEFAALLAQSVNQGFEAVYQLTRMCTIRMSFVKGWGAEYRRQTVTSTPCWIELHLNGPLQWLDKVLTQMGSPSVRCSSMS
From the text: 293T cells were transfected with TGFβRII. Some of these cells were then co-transfected with a “His”-tagged TRIP-1 (His-TRIP-1). In lane A, in which both the receptor and TRIP-1 were present, but GST-TRAP was not added, no parts of the complex could be “pulled down” with glutathione coated beads. The same was true if His-TRIP-1 was not transfected into the cells. However, if the receptor, TRIP-1 and GST-TRAP were all present, a protein complex composed of the receptor, TRIP-1 and Smad 2 could be extracted with glutathione coated beads.
GST-TRAP and GST-TRIP fusion proteins, and GST control protein were purified as instructed by the manufacturer (Amersham Pharmacia). Briefly, plasmids containing GST-fusion protein expressing cDNA were transformed into a BL21DE3)pLysS bacteria strain and selected for ampicillin and chloramphenicol resistant colonies. Selected colonies were grown in LB medium at 30° C. until OD600 reached 0.6 to 1. Then 0.1 mM IPTG was added to medium for 3 hours. Bacteria were lysed by B-PER (Pierce) with 1 mM PMSF. Lysed bacteria were spun down and the supernatants were collected. […]
Detection of HIS-TRIP was performed with anti-HIS antibodies and detection of the TGFβRII and Smad 2 were performed with a commercially available antibodies. […] The beads were extensively washed and the proteins interacting with the beads were analyzed with Western analysis.

Molecule: TGFβ
effect on alkaline phosphatase activity, Runx 2, OPG and collagen protein synthesis (isolated osteoblasts): an increase in alkaline phosphatase activity, and an increase in Runx 2, osteoprotegerin (OPG) and collagen protein synthesis
level of OPG (D14 primary osteoblasts): less Osteoprotegrin (OPG) production
activation of reporter gene in Smad4 deficient cells (SW408 cells): neither TGFβ nor TRAP could activate the reporter gene
signaling after restoration of Smad4 and TRIP-1 protein (SW408 cells; cells transfected with Smad4 and TRIP-1): restores TGFβ and TRAP signaling
P3TP-Lux activation with co-transfected dominant negative type II TGFβ receptor [1]: block both TGFβ and TRAP activation of the pathway
upregulation of P3TP-Lux reporter gene ([1]; TRAP 10 μg/ml, TGFβ 5 ng/ml, MG-63 shown, SaOS2 the same): strongly upregulate a reporter gene
activation of P3TP lux [2]: strongly activate P3TP lux

Molecule: C[S+](C)[O-] [DMSO]
protection from apoptosis induced by TRAP (ROS 17/2.8 cells): did not protect cells from apoptosis induced by TRAP

cleaved caspase 3 and cleaved PARP [3]: have the same effect on the cells
B1: GST-TRAP: recombinant fusion protein of GST and TRAP, non-glycosyl protein made in bacteria (protein)
chain: ATPALRFVAVGDWGGVPNAPFHTAREMANAKEIARTVQILGADFILSLGDNFYFTGVQDINDKRFQETFEDVFSDRSLRKVPWYVLAGNHDHLGNVSAQIAYSKISKRWNFPSPFYRLHFKIPQTNVSVAIFMLDTVTLCGNSDDFLSQQPERPRDVKLARTQLSWLKKQLAAAREDYVLVAGHYPVWSIAEHGPTHCLVKQLRPLLATYGVTAYLCGHDHNLQYLQDENGVGYVLSGAGNFMDPSKRHQRKVPNGYLRFHYGTEDSLGGFAYVEISSKEMTVTYIEASGKSLFKTRLPRRARP
modifications: left off: a dimerising Fc or GST
notes: recombinant fusion protein of GST and TRAP, non-glycosyl protein made in bacteria
proteins pulled down with glutathione beads [4]: the complex of the TGFβRII, HIS-TRIP and Smad 2 can be extracted and detected
